# Active and inactive are the calls of the source.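 How the source made its calls: active means compounds whose fitted half-maximal concentration in the cell-protection dose series is at or below a set limit; inactive means the rest.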
# Test system: H9c2 cardiomyocytes, 2-deoxyglucose stress, ATP luminescence, 2 h
# Test: H9c2 cell survival under 2-deoxyglucose stress – uHTS hits, dose response (AID 588780)
row,Structure (SMILES),IC50
1,CCCn1c(NC(=O)c2ccccc2)nc2ccccc21,> 79 µM (inactive)
2,NC(=O)c1c(NC(=O)Cn2nc(C(=O)O)c3ccccc3c2=O)sc2c1CCC2,> 79 µM (inactive)
3,O=C(N/N=C/c1ccccn1)c1[nH]c2ccc([N+](=O)[O-])cc2c1-c1ccccc1,13.2 µM
4,COc1ccc(Cc2n[nH]c(=O)c3ccccc23)cc1OC,> 79 µM (inactive)
5,NC(=O)COc1ccc2oc(=O)cc(-c3cc4ccccc4o3)c2c1,> 79 µM (inactive)
6,Cc1ncc(CO)c2c1Oc1nc(-c3ccccc3)nc(SCC(=O)N3CCCCC3)c1C2,> 79 µM (inactive)
7,COc1ccc(/C=N/NC(=O)c2cccnc2)cc1CN1CCc2ccccc2C1,> 79 µM (inactive)
8,CCOc1cc(/C=C/c2nc3ccccc3c(=O)[nH]2)ccc1O,> 79 µM (inactive)
9,CC(=O)NC(CCc1ccc(Cl)c(Cl)c1)c1cccc(O)c(=O)c1 (stereo unspecified),> 79 µM (inactive)
10,COc1ccccc1NC(=O)CSc1ccc2nnc(-c3ccc(C)cc3)n2n1,> 79 µM (inactive)
11,COC(=O)c1cc(NC(=O)Nc2cc(OC)ccc2OC)cc(C(=O)OC)c1,38.4 µM (inactive)
12,CC1(C(=O)Nc2cccc(OC(F)(F)F)c2)Cc2c(-c3ccc(C(N)=O)cc3)ccnc2O1 (stereo unspecified),> 79 µM (inactive)
13,Cn1c(=O)[nH]c(=O)c2c1nc(N(CCO)Cc1ccccc1)n2CCCc1ccccc1,> 79 µM (inactive)
14,O=c1cc(-c2cccnc2)oc2c1ccc1ccccc12,12.6 µM
15,CCOC(=O)C1=C(CC)Nc2ccccc2N=C1NC(=O)c1ccc(S(=O)(=O)N(C)C)cc1,> 79 µM (inactive)
16,CC(C)Cn1c(N)c(C(=O)COC(=O)CCc2nc3ccccc3c(=O)[nH]2)c(=O)n(C)c1=O,> 79 µM (inactive)
17,CC(C)(C)C(=O)Nc1ccc(C(=O)N/N=C/c2ccccc2OC(=O)c2ccccc2)cc1,> 79 µM (inactive)
18,COc1ccc(-n2nc(C(=O)NCC(=O)Nc3cc(OC)c(OC)c(OC)c3)c3ccccc3c2=O)cc1Cl,> 79 µM (inactive)
19,CNC(=O)c1ccc(-c2sc3nc(N4CCOCC4)c4c(c3c2N)CCCC4)o1,> 79 µM (inactive)
20,CC(=O)c1cccc(-c2cnc3c(NC=O)cc(-c4ccc(F)cc4)cn23)c1,> 79 µM (inactive)
21,COc1cccc(-c2cnc3c(NC=O)cc(-c4cc(OC)c(OC)c(OC)c4)cn23)c1,> 79 µM (inactive)
22,CCCN(CCC)S(=O)(=O)c1ccc(C(=O)Nc2nnc(-c3cc(OC)cc(OC)c3)o2)cc1,9.06 µM
23,Cc1ccc(OCC(=O)NCc2n[nH]c(=O)c3ccccc23)cc1,> 79 µM (inactive)

row,Structure (SMILES),IC50
1,COc1ccc(-c2cc(-c3ccc(O)cc3)nc(N)c2C#N)cc1OC,> 79 µM (inactive)
2,COC(=O)c1cc(NC(=O)c2cc3ccccc3o2)cc(C(=O)OC)c1,20.5 µM
3,COC(=O)c1ccccc1NC(=O)c1nc2nc(C)cc(C)n2n1,> 79 µM (inactive)
4,CCOC(=O)C1CCN(c2cc3c(cc2NC(=O)c2ccc(OC)c(OC)c2)n(C)c(=O)n3C)CC1,> 79 µM (inactive)
5,O=C(NNC(=O)c1ccccc1OCc1ccccc1Cl)c1csc(N2CCOCC2)n1,22.4 µM
6,Cc1ccc(NS(=O)(=O)c2cc(-c3n[nH]c(=O)c4ccccc34)ccc2C)cc1,> 79 µM (inactive)
7,CCOC(=O)c1ccccc1NC(=O)CSc1ccc(-c2ccccn2)nn1,23.4 µM
8,COc1ccc(C(=O)NN/C=C/C(=O)c2ccc(Br)cc2)cc1,> 79 µM (inactive)
9,CC(OC(=O)CCc1nc2ccccc2c(=O)[nH]1)C(=O)Nc1ccc2c(c1)OCO2 (stereo unspecified),> 79 µM (inactive)
10,COc1cccc(Nc2nc3ccccc3n3nnnc23)c1,14.6 µM
11,Cc1nnc2ccc(-c3cccc(NC(=O)c4ccc(Cl)nc4)c3)nn12,22.1 µM
12,CCOC(=O)c1ccccc1OCc1cc(/C=N/NC(=O)c2cccnc2)ccc1OC,10.7 µM
13,COc1ccc(-c2ccc3c(c2)S(=O)(=O)c2cccc(C(=O)N4CCN(c5c(Cl)cncc5Cl)CC4)c2C3=O)cc1OC,> 79 µM (inactive)
14,CCCCn1nc(NC(=O)c2cccs2)c2cc3cc(OC)ccc3nc21,> 79 µM (inactive)
15,NS(=O)(=O)c1ccc(CCNC(=O)c2ccc(C#CC3(O)CCCCC3)cc2)cc1,> 79 µM (inactive)
16,CC1Nc2ncnc(N3CCN(c4ccccc4)CC3)c2N(Cc2ccc(Cl)cc2)C1=O (stereo unspecified),12.7 µM
17,CCCCc1nc2sc3c(c2c(=O)[nH]1)CCC3,> 79 µM (inactive)
18,CCOC(=O)C1=C(COC(=O)c2ccc([N+](=O)[O-])o2)NC(=O)NC1C (stereo unspecified),> 79 µM (inactive)
19,CN(C)CCNc1ccc(-c2n[nH]c(=O)c3ccccc23)cc1[N+](=O)[O-],> 79 µM (inactive)
20,CCc1c(C)nc(Nc2nc(C)c3ccc(OC)cc3n2)[nH]c1=O,> 79 µM (inactive)
21,CC1Cc2ccccc2N1C(=O)c1cc2c(=O)n3ccccc3nc2n1C (stereo unspecified),> 79 µM (inactive)
22,COC(=O)c1ccc(CSc2ccc3nnc(-c4cccc(F)c4)n3n2)o1,27.4 µM
23,O=C(CCc1nc2ccccc2c(=O)[nH]1)NNC(=O)c1ccc(F)cc1,> 79 µM (inactive)

# From PubChem BioAssay AID588780 (Sanford-Burnham Center for Chemical Genomics, 2011)
